Patent publication US20230174468A1, “SULFATED PILLARARENES, METHODS OF MAKING SAME, AND USES THEREOF” (priority 2007, published 2023)
Where two headings read alike, the source gives them in different places.

Columns and labels:
[1] = test system: TA1535
[2] = test system: TA1537
[3] = test system: TA100
[4] = test system: TA98
[5] = M2.cis complex, previous work; cited from earlier work
[6] = TA1535, +S9, positive control compounds
[7] = TA1535, −S9, positive control compounds
[8] = TA1537, +S9, positive control compounds
[9] = TA1537, −S9, positive control compounds
[10] = TA100, +S9, positive control compounds
[11] = TA100, −S9, positive control compounds
[12] = TA98, +S9, positive control compounds
[13] = TA98, −S9, positive control compounds

| SMILES | number of positive wells [1, 6] | significance of positive wells vs control (Fisher's exact test) [1, 6] | number of positive wells [1, 7] | significance of positive wells vs control (Fisher's exact test) [1, 7] | number of positive wells [2, 8] | significance of positive wells vs control (Fisher's exact test) [2, 8] | number of positive wells [2, 9] | significance of positive wells vs control (Fisher's exact test) [2, 9] | number of positive wells [3, 10] | significance of positive wells vs control (Fisher's exact test) [3, 10] | number of positive wells [3, 11] | significance of positive wells vs control (Fisher's exact test) [3, 11] | number of positive wells [4, 12] | significance of positive wells vs control (Fisher's exact test) [4, 12] | number of positive wells [4, 13] | significance of positive wells vs control (Fisher's exact test) [4, 13] | Ka [5] |
| --- | --- | --- | --- | --- | --- | --- | --- | --- | --- | --- | --- | --- | --- | --- | --- | --- | --- |
| CN(N=O)C(=O)N[C@H]1C(O)O[C@H](CO)[C@@H](O)[C@@H]1O (mixture of isomers) [Streptozotocin] | 24/48 | +++ (p<0.001 (very strong positive, +++)) | 16/48 | +++ (p<0.001 (very strong positive, +++)) | 1/48 | − (p >0.05 (negative, −)) | 1/48 | − (p >0.05 (negative, −)) | 7/48 | − (p >0.05 (negative, −)) | 5/48 | + (0.01<p<0.05 (weak positive, +)) | 0/48 | − (p >0.05 (negative, −)) | 0/48 | − (p >0.05 (negative, −)) |  |
| Nc1ccc2cc3ccccc3cc2c1 [Host 2-AA, 2-aminoanthracene] | 9/48 | ++ (0.001<p <0.01 (strong positive, ++)) | 0/48 | − (p >0.05 (negative, −)) | 6/48 | + (0.01<p<0.05 (weak positive, +)) | 0/48 | − (p >0.05 (negative, −)) | 11/48 | + (0.01<p<0.05 (weak positive, +)) | 0/48 | − (p >0.05 (negative, −)) | 13/48 | +++ (p<0.001 (very strong positive, +++)) | 0/48 | − (p >0.05 (negative, −)) |  |
| Nc1c2ccccc2nc2ccccc12 [Host 9-AA, 9-aminoacridine] | 0/48 | − (p >0.05 (negative, −)) | 0/48 | − (p >0.05 (negative, −)) | 24/48 | +++ (p<0.001 (very strong positive, +++)) | 24/48 | +++ (p<0.001 (very strong positive, +++)) | 2/48 | − (p >0.05 (negative, −)) | 0/48 | − (p >0.05 (negative, −)) | 0/48 | − (p >0.05 (negative, −)) | 0/48 | − (p >0.05 (negative, −)) |  |
| C[C@]12N3Cc4c(c(OCCCS(=O)(=O)[O-])c5ccccc5c4OCCCS(=O)(=O)[O-])CN1C(=O)N1CN4C(=O)N5CN6C(=O)N7CN8C(=O)N9Cc%10c(c(OCCCS(=O)(=O)[O-])c%11ccccc%11c%10OCCCS(=O)(=O)[O-])CN%10C(=O)N(CN%11C(=O)N(CN%12C(=O)N(CN(C3=O)[C@]12C)[C@@H]4[C@H]%125)[C@@H]6[C@H]%117)[C@]8(C)[C@@]9%10C.[Na+].[Na+].[Na+].[Na+] [Host M2] |  |  |  |  |  |  |  |  |  |  |  |  |  |  |  |  | 4.8e+06 M⁻¹ |
| O=c1c(O)c(-c2ccc(O)c(O)c2)oc2cc(O)cc(O)c12 [Quercetin] | 0/48 | − (p >0.05 (negative, −)) | 1/48 | − (p >0.05 (negative, −)) | 5/48 | + (0.01<p<0.05 (weak positive, +)) | 1/48 | − (p >0.05 (negative, −)) | 5/48 | − (p >0.05 (negative, −)) | 0/48 | − (p >0.05 (negative, −)) | 10/48 | +++ (p<0.001 (very strong positive, +++)) | 5/48 | + (0.01<p<0.05 (weak positive, +)) |  |
